Source: US20240400561A1, “NOVEL SUBSTITUTED SULFONYLUREA COMPOUNDS AS INHIBITORS OF INTERLEUKIN-1 ACTIVITY” (Viva Star Biosciences (Suzhou) Co., Ltd., priority 2021, published 2024)

Target: T1, NLRP3 (Homo sapiens, UniProt Q96P20)
T1 construct: Seed THP-1 cells (5.56*10^5 cells/mL) containing 1.0 ug/mL LPS; endogenous in cells; host or cells: THP-1 cells
Test: THP-1 cell assay (LPS priming, nigericin), IL1β release by HTRF; called pyroptosis assay, THP IC50
Format: cell-based
Conditions: NLRP3 inhibitory activity; THP-1 cells, 1.0 ug/mL LPS, compound 3 hrs, nigericin 5 uM 1 hr, IL1β in supernatant
Method: The following method was used for compound screening. • 1. Seed THP-1 cells (5.56*10^5 cells/mL) containing 1.0 ug/mL LPS (SIGMA, L6529) in 45 uL RPMI 1640 medium (without FBS) into 384-well plate (Thermo Scientific, 164688). • 2. Add 5 uL compound (10 doses starting from 5 uM, 1:3 dilution) or vehicle (0.05% DMSO in medium) to the appropriate wells. • 3. Centrifuge the plates at 1000 rpm for 2 mins and incubate for 3 hrs at 37° C., 5% CO2. • 4. Add 5 uL nigericin (MEC, HY-100381) (final conc. 5 uM) to sample wells and positive control wells; add 5 uL RPMI 1640 medium to negative control wells. • 5. Centrifuge plates at 1000 rpm for 2 mins and incubate for 1 hr at 37° C., 5% CO2. • 6. At the end of the incubation period, centrifuge plates at 1000 rpm for 6 mins and transfer 8 uL supernatant into 384-well assay plates (PerkinElmer, 6008280). • 7. Add 8 ul RPMI 1640 medium into each well and spin down for 10 secs. • 8. Prepare the standard solutions and pre-mixed IL1β antibody solution of Human […] kits (PerkinElmer, 62HIL1BPEH) according to the instruction. • 9. Add 16 uL standard solutions into clear wells of 384-well assay plates. • 10. Add 4 uL pre-mixed IL1β antibody solution to all wells including sample wells, positive control wells, negative control wells and standard solutions wells. • 11. Seal the plates, spin down for 10 secs, incubation for overnight at RT and read on an HTRF® compatible reader (BMG LABTECH, PHERAstar FS). • 12. The concentrations of IL1β for treated wells are calculated by the standard curve. • 13. The IC50 data is fitted to a non-liner regression equation (log inhibitor vs. response—Variable slope four parameters)).

T1 sequence (Q96P20 whole entry): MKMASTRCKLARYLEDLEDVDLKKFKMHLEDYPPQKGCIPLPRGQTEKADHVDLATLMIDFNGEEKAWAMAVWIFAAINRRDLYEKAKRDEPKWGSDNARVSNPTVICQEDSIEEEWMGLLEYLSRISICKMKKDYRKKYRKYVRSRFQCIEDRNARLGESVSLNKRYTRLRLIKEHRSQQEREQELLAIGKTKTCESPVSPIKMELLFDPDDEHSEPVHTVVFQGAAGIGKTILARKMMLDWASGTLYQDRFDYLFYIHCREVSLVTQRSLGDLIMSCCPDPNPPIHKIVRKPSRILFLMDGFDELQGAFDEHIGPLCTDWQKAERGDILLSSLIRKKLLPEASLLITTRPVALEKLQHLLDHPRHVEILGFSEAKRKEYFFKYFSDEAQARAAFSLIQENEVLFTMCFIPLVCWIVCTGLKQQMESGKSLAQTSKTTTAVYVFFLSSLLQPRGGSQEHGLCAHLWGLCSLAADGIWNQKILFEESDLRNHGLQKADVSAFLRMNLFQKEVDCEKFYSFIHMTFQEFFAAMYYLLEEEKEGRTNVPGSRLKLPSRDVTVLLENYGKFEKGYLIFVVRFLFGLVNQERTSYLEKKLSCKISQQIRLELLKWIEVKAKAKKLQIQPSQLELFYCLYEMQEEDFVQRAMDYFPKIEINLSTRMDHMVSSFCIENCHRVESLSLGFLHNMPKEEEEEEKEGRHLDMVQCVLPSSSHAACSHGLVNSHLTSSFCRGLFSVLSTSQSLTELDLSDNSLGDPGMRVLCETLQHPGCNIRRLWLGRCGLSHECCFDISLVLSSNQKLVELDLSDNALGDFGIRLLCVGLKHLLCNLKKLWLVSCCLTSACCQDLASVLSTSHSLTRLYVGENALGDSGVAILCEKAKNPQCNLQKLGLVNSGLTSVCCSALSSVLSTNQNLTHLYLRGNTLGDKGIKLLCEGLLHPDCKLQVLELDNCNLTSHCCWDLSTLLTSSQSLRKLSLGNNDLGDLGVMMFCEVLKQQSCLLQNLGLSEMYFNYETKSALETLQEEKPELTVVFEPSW

IC50, 1000 to 2000 nM:
CC(C)(O)c1csc(S(=O)(=O)NC(=O)Nc2c(-c3cnc4ccnn4c3)ccc3c2CCC3)c1 [Example 64, 4-(2-hydroxypropan-2-yl)-N-((5-(pyrazolo[1,5-a]pyrimidin-6-yl)-2,3-dihydro-1H-inden-4-yl)carbamoyl)thiophene-2-sulfonamide]

IC50, 300 to 1000 nM:
CN1CCC(n2ccc3c(-c4ccc5c(c4NC(=O)NS(=O)(=O)c4cc(C(C)(C)O)cs4)CCC5)ccnc32)CC1 [Example 55, 4-(2-hydroxypropan-2-yl)-N-((5-(1-(1-methylpiperidin-4-yl)-1H-pyrrolo[2,3-b]pyridin-4-yl)-2,3-dihydro-1H-inden-4-yl)carbamoyl)thiophene-2-sulfonamide]
Cc1cc2c(c(NC(=O)NS(=O)(=O)c3ccn(C(C)C4CC4)n3)c1-c1ccn3nccc3c1)CCC2 (centres unmarked) [Example 82, 1-(1-cyclopropylethyl)-N-((6-methyl-5-(pyrazolo[1,5-a]pyridin-5-yl)-2,3-dihydro-1H-inden-4-yl)carbamoyl)-1H-pyrazole-3-sulfonamide]
Cn1cnc2ccc(-c3ccc4c(c3NC(=O)NS(=O)(=O)c3cc(C(C)(C)O)cs3)CCC4)cc21 [Example 43, 4-(2-hydroxypropan-2-yl)-N-((5-(1-methyl-1H-benzo[d]imidazol-6-yl)-2,3-dihydro-1H-inden-4-yl)carbamoyl)thiophene-2-sulfonamide]
CC(C)(O)c1csc(S(=O)(=O)NC(=O)Nc2c(-c3ccc4nncn4c3)ccc3c2CCC3)c1 [Example 61]
CN1CCC(n2ccc3c(-c4ccc5c(c4NC(=O)NS(=O)(=O)c4cc(C(C)(C)O)cs4)CCC5)ccnc32)C1 (centres unmarked) [Example 57, 4-(2-hydroxypropan-2-yl)-N-((5-(1-(1-methylpyrrolidin-3-yl)-1H-pyrrolo[2,3-b]pyridin-4-yl)-2,3-dihydro-1H-inden-4-yl)carbamoyl)thiophene-2-sulfonamide]

IC50, > 2000 nM:
Cc1cc2c(c(NC(=O)NS(=O)(=O)c3ccn([C@@H]4CC[C@@H]4O)n3)c1-c1ccn3nccc3c1)CCC2 (relative stereo) [Example 85, 1-(rel-(1R,2S)-2-hydroxycyclobutyl)-N-((6-methyl-5-(pyrazolo[1,5-a]pyridin-5-yl)-2,3-dihydro-1H-inden-4-yl)carbamoyl)-1H-pyrazole-3-sulfonamide]
O=C(Nc1c(-c2cnc3ccnn3c2)ccc2c1CCC2)NS(=O)(=O)c1cnn(CC2CC2)c1 [Example 22, 1-(cyclopropylmethyl)-N-((5-(pyrazolo[1,5-a]pyrimidin-6-yl)-2,3-dihydro-1H-inden-4-yl)carbamoyl)-1H-pyrazole-4-sulfonamide]

IC50, 30 to 300 nM:
Cc1cc2c(c(NC(=O)NS(=O)(=O)c3ccc(=O)n(CC4CC4)c3)c1-c1ccn3nccc3c1)CCC2 [Example 39, 1-(cyclopropylmethyl)-N-((6-methyl-5-(pyrazolo[1,5-a]pyridin-5-yl)-2,3-dihydro-1H-inden-4-yl)carbamoyl)-6-oxo-1,6-dihydropyridine-3-sulfonamide]
Cc1cc2c(c(NC(=O)NS(=O)(=O)c3cncc(N(C)C4CCC4)c3)c1-c1ccn3nccc3c1)CCC2 [Example 36, 5-(cyclobutyl(methyl)amino)-N-((6-methyl-5-(pyrazolo[1,5-a]pyridin-5-yl)-2,3-dihydro-1H-inden-4-yl)carbamoyl)pyridine-3-sulfonamide]
Cc1cc2c(c(NC(=O)NS(=O)(=O)C3CC(OC4CC4)C3)c1-c1ccn3nccc3c1)CCC2 (centres unmarked) [Example 75, 3-cyclopropoxy-N-((6-methyl-5-(pyrazolo[1,5-a]pyridin-5-yl)-2,3-dihydro-1H-inden-4-yl)carbamoyl)cyclobutane-1-sulfonamide]
Cc1cc2c(c(NC(=O)NS(=O)(=O)c3cc(CN(C)C)n(C4CC4)n3)c1-c1ccn3nccc3c1)CCC2 [Example 77, 1-cyclopropyl-5-((dimethylamino)methyl)-N-((6-methyl-5-(pyrazolo[1,5-a]pyridin-5-yl)-2,3-dihydro-1H-inden-4-yl)carbamoyl)-1H-pyrazole-3-sulfonamide]
CC(C)(O)c1csc(S(=O)(=O)NC(=O)Nc2c(-c3ccn4nncc4c3)ccc3c2CCC3)c1 [Example 62, N-((5-([1,2,3]triazolo[1,5-a]pyridin-5-yl)-2,3-dihydro-1H-inden-4-yl)carbamoyl)-4-(2-hydroxypropan-2-yl)thiophene-2-sulfonamide]
CC(C)(O)c1csc(S(=O)(=O)NC(=O)Nc2c(-c3ccnc4c3ccn4C3CC3)ccc3c2CCC3)c1 [Example 49, N-((5-(1-cyclopropyl-1H-pyrrolo[2,3-b]pyridin-4-yl)-2,3-dihydro-1H-inden-4-yl)carbamoyl)-4-(2-hydroxypropan-2-yl)thiophene-2-sulfonamide]

IC50, ≤ 30 nM:
CC(C)(O)c1csc(S(=O)(=O)NC(=O)Nc2c(-c3ccc4nccn4c3)ccc3c2CCC3)c1 [Example 51, 4-(2-hydroxypropan-2-yl)-N-((5-(imidazo[1,2-a]pyridin-6-yl)-2,3-dihydro-1H-inden-4-yl)carbamoyl)thiophene-2-sulfonamide]
CC(C)(O)c1csc(S(=O)(=O)NC(=O)Nc2c3c(cc(C#N)c2-c2ccn4cncc4c2)CCC3)c1 [Example 2, N-((6-cyano-5-(imidazo[1,5-a]pyridin-7-yl)-2,3-dihydro-1H-inden-4-yl)carbamoyl)-4-(2-hydroxypropan-2-yl)thiophene-2-sulfonamide]
Cc1cc2c(c(NC(=O)NS(=O)(=O)c3ccn(C4CC(O)C4)n3)c1-c1ccn3nccc3c1)CCC2 (centres unmarked) [Example 76, 1-(3-hydroxycyclobutyl)-N-((6-methyl-5-(pyrazolo[1,5-a]pyridin-5-yl)-2,3-dihydro-1H-inden-4-yl)carbamoyl)-1H-pyrazole-3-sulfonamide]
Cc1cc2c(c(NC(=O)NS(=O)(=O)c3cnn(CC4CC4)c3)c1-c1ccc3nccn3c1)CCC2 [Example 19, 1-(cyclopropylmethyl)-N-((5-(imidazo[1,2-a]pyridin-6-yl)-6-methyl-2,3-dihydro-1H-inden-4-yl)carbamoyl)-1H-pyrazole-4-sulfonamide]
CC(C)(O)c1csc(S(=O)(=O)NC(=O)Nc2c(-c3ccn4cnnc4c3)ccc3c2CCC3)c1 [Example 63, N-((5-([1,2,4]triazolo[4,3-a]pyridin-7-yl)-2,3-dihydro-1H-inden-4-yl)carbamoyl)-4-(2-hydroxypropan-2-yl)thiophene-2-sulfonamide]
CC(C)(O)c1csc(S(=O)(=O)NC(=O)Nc2c(-c3ccn4ccnc4c3)ccc3c2OCO3)c1 [Example 66, 4-(2-hydroxypropan-2-yl)-N-((5-(imidazo[1,2-a]pyridin-7-yl)benzo[d][1,3]dioxol-4-yl)carbamoyl)thiophene-2-sulfonamide]
CC(C)(O)c1csc(S(=O)(=O)NC(=O)Nc2c3c(cc(Cl)c2-c2ccn4cncc4c2)CCC3)c1 [Example 71, N-((6-chloro-5-(imidazo[1,5-a]pyridin-7-yl)-2,3-dihydro-1H-inden-4-yl)carbamoyl)-4-(2-hydroxypropan-2-yl)thiophene-2-sulfonamide]
Cc1cc2c(c(NC(=O)NS(=O)(=O)c3cc(OC4CC4)cnn3)c1-c1ccn3nccc3c1)CCC2 [Example 81, 5-cyclopropoxy-N-((6-methyl-5-(pyrazolo[1,5-a]pyridin-5-yl)-2,3-dihydro-1H-inden-4-yl)carbamoyl)-1H-pyridazine-3-sulfonamide]
O=C(Nc1c2c(cc(F)c1-c1ccn3nccc3c1)CCC2)NS(=O)(=O)c1ccn(C2CC2)n1 [Example 25, 1-cyclopropyl-N-((6-fluoro-5-(pyrazolo[1,5-a]pyridin-5-yl)-2,3-dihydro-1H-inden-4-yl)carbamoyl)pyrazole-3-sulfonamide]
CC(C)(O)c1csc(S(=O)(=O)NC(=O)Nc2c(-c3ccn4nccc4c3)ccc3c2CCC3)c1 [Example 60, 4-(2-hydroxypropan-2-yl)-N-((5-(pyrazolo[1,5-a]pyridin-5-yl)-2,3-dihydro-1H-inden-4-yl)carbamoyl)thiophene-2-sulfonamide]
CC(C)(O)c1csc(S(=O)(=O)NC(=O)Nc2c(-c3ccc4ccnn4c3)ccc3c2CCC3)c1 [Example 68, 4-(2-hydroxypropan-2-yl)-N-((5-(pyrazolo[1,5-a]pyridin-6-yl)-2,3-dihydro-1H-inden-4-yl)carbamoyl)thiophene-2-sulfonamide]
Cc1cc2c(c(NC(=O)NS(=O)(=O)c3ccn(C[C@@H](C)O)n3)c1-c1ccn3nccc3c1)CCC2 [Example 79, (R)-1-(2-hydroxypropyl)-N-((6-methyl-5-(pyrazolo[1,5-a]pyridin-5-yl)-2,3-dihydro-1H-inden-4-yl)carbamoyl)-1H-pyrazole-3-sulfonamide]
